Series [1] addresses T1, Human recombinant aldose reductase (Homo sapiens, UniProt P15121).
T1 construct: made in house; host or cells: Sf9 insect cells (Spodoptera frugiperda) infected with recombinant baculovirus AcAR
In words: Inhibition of human recombinant aldose reductase (NADPH disappearance at 340 nm). The series is classed as biochemical. The protocol: Human recombinant aldose reductase was obtained and purified as previously described^21 with slight modifications. Briefly, Sf9 insect cells (Spodoplera frugiperda, from Pharmingen) were cultured in Grace's medium (Gibco) at 27° C. Then, cultures were infected with the purified recombinant baculovirus AcAR^22 that was kindly provided by Dr. C. Nishimura (National Children's Medical Research Center, Tokyo, Japan). The enzyme released into the culture medium was purified by affinity chromatography (Matrex Gel Orange A, Amicon). This Aldose Reductase was kept at −20° C. in 50 mM sodium phosphate, pH 7.0, 5 mM dithiotreitol and 50% glycerol.
Recombinant Aldose Reductase activity was determined according to the method previously described^21. The assay was carried out in a 96-well microtiter plate, at 37° C. in 100 mM sodium phosphate buffer, pH 6.2, 400 mM (NH4)2SO4, 0.1 mM NADPH and 5 mU/ml recombinant aldose reductase (1 mU of activity was defined as a change in absorbance of 0.012 units per minute). The reaction was initiated by addition of 10 mM glyceraldehyde and the enzymatic activity measured as the NADPH disappearance at 340 nm in a plate reader (MR-5000, Dynatech). Compounds were dissolved in DMSO (1% final concentration).

In series [2] the test system is cells from rabbit cornea (ATCC CCL 60). Briefly: Inhibition of intracellular accumulation of sorbitol in rabbit cornea cells. The series is classed as cell-based. The note with it: Oryctolagus cuniculus, read-out: INHIBITION, IC50 Sorbitol Accumulation. The protocol: For this assay, cells from rabbit cornea (ATCC CCL 60) were used as previously described^23. In summary, 10×10^6 cells were incubated in 2.5 ml of Minimum Essential Medium (JRH Biosciences), 0.5% foetal calf serum and 50 mM glucose for 16 h at 37° C. in presence of 5% CO2. Compounds under study were added in DMSO whose final concentration was 1%. The sorbitol accumulated in the cells was extracted by lysis with 8% perchloric acid and neutralised with 2N KOH^24. Sorbitol quantitation was carried out using a calorimetric test (D-Sorbitol/Xylitol, Boehringer Mannheim).

The mark [3] stands for this setting: recombinant enzyme, 37° C., pH 6.2, 10 mM glyceraldehyde, 0.1 mM NADPH, read-out: INHIBITION, IC50 Aldose Reductase.
[4] abbreviates: rabbit cornea cells, 50 mM glucose, 16 h at 37° C.

This passage reports IC50 and melting point results from patent US6610890B1, “Aldose reductase inhibitors and pharmaceutical compositions” (O.N.C.E.-(Organizacion Nacional De Cicgos), priority 1998, dated 2003).

Where two headings read alike, the source gives them in different places.

The term IC50 denotes the concentration needed to halve the response being measured. The melting point is the temperature of the solid-liquid transition. As to `Oc1c(Oc2cc(Br)c(Br)c(Br)c2O)cc(Br)c(Br)c1Br` [A-I, 3,3′,4,4′,5,5′-hexabromo-2,2′-dihydroxy-oxydiphenyl], the melting point was in the range of 188 to 190 °C. For the same compound, the IC50 in series [1] (setting [3]) was determined as 4000 nM. The IC50 in series [2] (setting [4]) amounted to 1000 nM.

As to `O=C(c1cc(Br)cc(Br)c1O)c1cc(Br)cc(Br)c1O` [A-IV, 3,3′,5,5′-tetrabromo-2,2′-dihydroxybenzophenone], the IC50 in series [1] (setting [3]) came to 4000 nM; in series [2] (setting [4]) it was 5000 nM.

Consider `Oc1c(Oc2cc(Cl)c(Cl)c(Cl)c2O)cc(Cl)c(Cl)c1Cl` [A-III, 3,3′,4,4′,5,5′-Hexachloro-2,2′-dihydroxy-oxydiphenyl], for which the IC50 was 5000 nM in series [1] and 240 nM in series [2] (setting [4]).

On to `Oc1c(F)c(F)c(-c2c(F)c(F)c(O)c(F)c2F)c(F)c1F` [A-VII, 2,2′,3,3′,5,5′,6,6′-Octafluoro-4,4′-biphenol hydrate], for which the IC50 stood at 220 nM in series [1] (setting [3]) and 420 nM in series [2] (16 h).

Compound `Oc1c(Cl)c(Cl)c(-c2c(Cl)c(Cl)c(O)c(Cl)c2Cl)c(Cl)c1Cl` [A-VI, 2,2′,3,3′,5,5′,6,6′-Octachloro-4,4′-biphenol] returned a melting point of 94 to 96 °C. Besides, in series [1] (setting [3]), the IC50 was 11000 nM. Further, in series [2] (setting [4]), the IC50 amounted to 220 nM.

As to `Oc1c(Br)cc(Oc2cc(Br)c(Br)c(Br)c2O)c(O)c1Br` [A-II, 3,3′,4′,5,5′-pentabromo-2,2′,4-trihydroxy-oxydiphenyl], the melting point fell in the range of 207 to 209 °C. Besides, in series [1], the IC50 was 2000 nM. Moreover, in series [2] (setting [4]), the IC50 was determined as 8000 nM.

`Oc1c(Br)c(Br)c(-c2c(Br)c(Br)c(O)c(Br)c2Br)c(Br)c1Br` [A-V, 2,2′,3,3′,5,5′,6,6′-Octabromo-4,4′-biphenol] registered a melting point of 282 °C. The IC50 in series [1] (setting [3]) worked out at 1000 nM. In series [2] (setting [4]), the IC50 is over 12000 nM.
